Reference: article PMC2947314 (Cellular Signalling, 2010)

Biological target: Sphingosine kinase 1 (SK1) (Homo sapiens, UniProt Q9NYA1)
Experiment: […]S1P formation assay, single concentration […]
Format: biochemical
Details: read-out: % inhibition at 50 μM

Chain of Sphingosine kinase 1 (SK1) (Q9NYA1 whole entry): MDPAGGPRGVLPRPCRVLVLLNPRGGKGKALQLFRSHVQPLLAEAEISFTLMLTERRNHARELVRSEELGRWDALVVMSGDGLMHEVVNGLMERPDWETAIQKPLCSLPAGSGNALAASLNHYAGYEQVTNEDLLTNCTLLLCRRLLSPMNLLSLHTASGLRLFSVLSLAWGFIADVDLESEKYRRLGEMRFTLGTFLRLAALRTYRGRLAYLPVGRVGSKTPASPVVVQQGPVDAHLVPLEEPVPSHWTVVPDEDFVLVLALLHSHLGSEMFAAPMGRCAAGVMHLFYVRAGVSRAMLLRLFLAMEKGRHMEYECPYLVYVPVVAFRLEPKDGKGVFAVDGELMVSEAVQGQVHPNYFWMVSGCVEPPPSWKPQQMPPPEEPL

inhibition at 50 µM: ~40%
SMILES: CCCCCCCCc1ccc(CCC(N)(CO)CO)cc1 [FTY720]
